Consider 16 compounds from US20240360178A1, “MACROCYCLIC IMMUNOMODULATORS” (Bristol-Myers Squibb Company, priority 2021, published 2024).

SMILES strings stand for the structures. Positions of bridges follow the written chain, without caps; N, C: chain ends. Non-standard residues stand in square brackets, D forms with d. Residues, ends and D or L forms follow the SMILES beside them. ξ: configuration not given here. Phe(4-COOH) = N[C@@H](Cc1ccc(C(=O)O)cc1)C(=O)O; Bip = N[C@@H](Cc1ccc(-c2ccccc2)cc1)C(=O)O; Phe(3-Br) = N[C@@H](Cc1cccc(Br)c1)C(=O)O; Phe(3-Cl) = N[C@@H](Cc1cccc(Cl)c1)C(=O)O; NMeF = CN[C@@H](Cc1ccccc1)C(=O)O; hPhe = N[C@@H](CCc1ccccc1)C(=O)O; 4Pal = N[C@@H](Cc1ccncc1)C(=O)O; Thr(3ξ) = CC(O)[C@H](N)C(=O)O; NMeA = CN[C@@H](C)C(=O)O; Nle = CCCC[C@H](N)C(=O)O; Dab = NCC[C@H](N)C(=O)O; Sar = CNCC(=O)O

In general, IC50 refers to the point on the concentration scale where inhibition reaches its midpoint.

The target of the assay is T1, human PD-1 (Jurkat-PD-1 cells) / PE-labeled human PD-L1-Ig (Homo sapiens, UniProt Q15116).
T1 construct: expressed in transfected cells; host or cells: Jurkat cell line over-expressing human PD-1
T1 sequence (Q15116 25-288): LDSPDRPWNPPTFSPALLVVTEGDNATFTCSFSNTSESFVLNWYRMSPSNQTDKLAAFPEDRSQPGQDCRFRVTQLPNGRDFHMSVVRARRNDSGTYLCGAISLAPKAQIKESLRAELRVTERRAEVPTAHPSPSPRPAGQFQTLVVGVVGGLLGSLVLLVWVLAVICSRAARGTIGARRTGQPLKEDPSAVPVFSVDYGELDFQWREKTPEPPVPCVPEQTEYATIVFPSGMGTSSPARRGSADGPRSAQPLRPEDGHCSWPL
Briefly: Jurkat-PD-1 Cell Binding High-Content Screening Assay (CBA); Jurkat hPD1-PDL1 assay. The note with it: Jurkat cell line over-expressing human PD-1; PE-labeled PD-L1-Ig 20 nM final; compound incubated 2 hours at 37° C.; read-out: Jurkat HPD1-PDL1 IC50. The gist of the method: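 Compound was added to Jurkat-PD-1 cells in DMEM plus 10% fetal calf serum and incubated 2 hours at 37° C. Binding of phycoerythrin-conjugated PD-L1-Ig (20 nM final) to the cells was imaged.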
Turning to `CC(C)C[C@@H]1NC(=O)[C@H](CCCNC(=N)N)NC(=O)[C@H](Cc2ccccc2)N(C)C(=O)[C@H](C)N(C)C(=O)[C@H](CCCNC(=N)N)NC(=O)[C@H](Cc2ccc(-c3ccccc3)cc2)NC(=O)[C@H](C(C)C)NC(=O)[C@H](Cc2c[nH]c3ccccc23)NC(=O)[C@H](CC(=O)O)NC(=O)[C@H](Cc2ccc(O)cc2)NC(=O)[C@H](CCC(N)=O)NC(=O)CSC[C@@H](C(=O)NCC(N)=O)NC(=O)[C@H](CO)NC(=O)[C@H](C(C)C)NC1=O` [Example 1057] ({CH2CO}-QYDWV[Bip]R[NMeA][NMeF]RLVSCG-NH2; thioether N-14), the IC50 turned out to be 130 nM.
Turning to `CC(C)C[C@@H]1NC(=O)[C@H](CCCNC(=N)N)NC(=O)[C@H](Cc2ccccc2)N(C)C(=O)[C@H](C)N(C)C(=O)[C@H](CCCNC(=N)N)NC(=O)[C@H](Cc2ccc(-c3ccccc3)cc2)NC(=O)[C@H](C(C)C)NC(=O)[C@H](Cc2c[nH]c3ccccc23)NC(=O)[C@H](CC(=O)O)NC(=O)[C@H](Cc2ccc(O)cc2)NC(=O)[C@H](Cc2cnc[nH]2)NC(=O)CSC[C@@H](C(=O)NCC(N)=O)NC(=O)[C@H](CO)NC(=O)[C@H](C(C)C)NC1=O` [Example 1058] ({CH2CO}-HYDWV[Bip]R[NMeA][NMeF]RLVSCG-NH2; thioether N-14), the IC50 came out at 130 nM.
As for `CC(C)C[C@@H]1NC(=O)[C@H](Cc2c[nH]c3ccccc23)NC(=O)[C@H](CC(=O)O)NC(=O)[C@H](Cc2ccc(C(=O)O)cc2)NC(=O)[C@H](CC(N)=O)NC(=O)CSC[C@@H](C(=O)N[C@@H](C)C(N)=O)NC(=O)[C@H](CO)NC(=O)[C@H](C(C)C)NC(=O)[C@H](CC(C)C)NC(=O)[C@H](CC(N)=O)NC(=O)[C@H]2CCCN2C(=O)[C@H](C)N(C)C(=O)[C@H](C(C)C)NC(=O)[C@H](Cc2ccc(-c3ccccc3)cc2)NC1=O` [Example 1059] ({CH2CO}-N[Phe(4-COOH)]DWL[Bip]V[NMeA][dP]NLVSCA-NH2; thioether N-14), the IC50 worked out at 140 nM.
The same measure for `CC(C)C[C@@H]1NC(=O)[C@H](Cc2c[nH]c3ccccc23)NC(=O)[C@H](CC(=O)O)NC(=O)[C@H](Cc2ccc(O)cc2)NC(=O)[C@H](Cc2ccccc2)NC(=O)CSC[C@@H](C(=O)N[C@@H](C)C(N)=O)NC(=O)[C@H](CO)NC(=O)[C@H](C(C)C)NC(=O)[C@H](CC(C)C)NC(=O)[C@H](CC(N)=O)NC(=O)[C@H](Cc2ccccc2)N(C)C(=O)[C@H](C)N(C)C(=O)[C@H](C(C)C)NC(=O)[C@H](Cc2ccc(-c3ccccc3)cc2)NC1=O` [Example 1060] ({CH2CO}-FYDWL[Bip]V[NMeA][NMeF]NLVSCA-NH2; thioether N-14): 140 nM; for `CC(C)C[C@@H]1NC(=O)[C@H](Cc2cccc(Cl)c2)NC(=O)[C@H](CC(=O)O)NC(=O)[C@H](Cc2ccc(O)cc2)NC(=O)[C@H](Cc2ccccc2)NC(=O)CSC[C@@H](C(=O)N[C@@H](C)C(N)=O)NC(=O)[C@H](CO)NC(=O)[C@H](C(C)C)NC(=O)[C@H](CC(C)C)NC(=O)[C@H](CC(N)=O)NC(=O)CN(C)C(=O)[C@H](C)N(C)C(=O)[C@H](C(C)C)NC(=O)[C@H](Cc2ccc(-c3ccccc3)cc2)NC1=O` [Example 1061] ({CH2CO}-FYD[Phe(3-Cl)]L[Bip]V[NMeA][Sar]NLVSCA-NH2; thioether N-14): 140 nM.
Then `CC(C)C[C@@H]1NC(=O)[C@H](CCCNC(=N)N)NC(=O)[C@H](Cc2ccccc2)N(C)C(=O)[C@H](C)N(C)C(=O)[C@H](CCCNC(=N)N)NC(=O)[C@H](Cc2ccc(-c3ccccc3)cc2)NC(=O)[C@H](C(C)C)NC(=O)[C@H](Cc2c[nH]c3ccccc23)NC(=O)[C@H](CC(=O)O)NC(=O)[C@H](Cc2ccc(O)cc2)NC(=O)[C@H](CO)NC(=O)CSC[C@@H](C(=O)NCC(N)=O)NC(=O)[C@H](CO)NC(=O)[C@H](C(C)C)NC1=O` [Example 1062] ({CH2CO}-SYDWV[Bip]R[NMeA][NMeF]RLVSCG-NH2; thioether N-14), with 160 nM.
Take `CC(C)C[C@@H]1NC(=O)[C@H](CCCNC(=N)N)NC(=O)[C@H](Cc2ccccc2)N(C)C(=O)[C@H](C)N(C)C(=O)[C@H](CCCNC(=N)N)NC(=O)[C@H](Cc2ccc(-c3ccccc3)cc2)NC(=O)[C@H](C(C)C)NC(=O)[C@H](Cc2c[nH]c3ccccc23)NC(=O)[C@H](CC(=O)O)NC(=O)[C@H](Cc2ccc(O)cc2)NC(=O)[C@H](Cc2ccccc2)NC(=O)CSC[C@@H](C(=O)N[C@H](C(N)=O)C(C)O)NC(=O)[C@H](CO)NC(=O)[C@H](C(C)C)NC1=O` (stereo partly shown) [Example 1063] ({CH2CO}-FYDWV[Bip]R[NMeA][NMeF]RLVSC[Thr(3ξ)]-NH2; thioether N-14): the IC50 was 160 nM.
Turning to `CC(C)C[C@@H]1NC(=O)[C@H](Cc2c[nH]c3ccccc23)NC(=O)[C@H](CC(=O)O)NC(=O)[C@H](Cc2ccncc2)NC(=O)[C@H](Cc2ccccc2)NC(=O)CSC[C@@H](C(=O)N[C@@H](C)C(N)=O)NC(=O)[C@H](CO)NC(=O)[C@H](C(C)C)NC(=O)[C@H](CC(C)C)NC(=O)[C@H](CC(N)=O)NC(=O)CN(C)C(=O)[C@H](C)N(C)C(=O)[C@H](C(C)C)NC(=O)[C@H](Cc2ccc(-c3ccccc3)cc2)NC1=O` [Example 1064] ({CH2CO}-F[4Pal]DWL[Bip]V[NMeA][Sar]NLVSCA-NH2; thioether N-14), the IC50 worked out at 160 nM.
The same measure for `CC(C)C[C@@H]1NC(=O)[C@H](Cc2c[nH]c3ccccc23)NC(=O)[C@H](CC(=O)O)NC(=O)[C@H](Cc2cccc(Br)c2)NC(=O)[C@H](Cc2ccccc2)NC(=O)CSC[C@@H](C(=O)N[C@@H](C)C(N)=O)NC(=O)[C@H](CO)NC(=O)[C@H](C(C)C)NC(=O)[C@H](CC(C)C)NC(=O)[C@H](CC(N)=O)NC(=O)[C@H]2CCCN2C(=O)[C@H](C)N(C)C(=O)[C@H](C(C)C)NC(=O)[C@H](Cc2ccc(-c3ccccc3)cc2)NC1=O` [Example 1065] ({CH2CO}-F[Phe(3-Br)]DWL[Bip]V[NMeA][dP]NLVSCA-NH2; thioether N-14): 120 nM; for `CC(C)C[C@@H]1NC(=O)[C@H](Cc2c[nH]c3ccccc23)NC(=O)[C@H](CC(=O)O)NC(=O)[C@H](Cc2ccc(C(=O)O)cc2)NC(=O)[C@H](Cc2ccccc2)NC(=O)CSC[C@@H](C(=O)N[C@@H](C)C(N)=O)NC(=O)[C@H](CO)NC(=O)[C@H](C(C)C)NC(=O)[C@H](CC(C)C)NC(=O)[C@H](CC(N)=O)NC(=O)CN(C)C(=O)[C@H](C)N(C)C(=O)[C@H](C(C)C)NC(=O)[C@H](Cc2ccc(-c3ccccc3)cc2)NC1=O` [Example 1066] ({CH2CO}-F[Phe(4-COOH)]DWL[Bip]V[NMeA][Sar]NLVSCA-NH2; thioether N-14): 160 nM; for `CCCC[C@@H]1NC(=O)[C@H](CCCNC(=N)N)NC(=O)[C@H](Cc2ccccc2)N(C)C(=O)[C@H](C)N(C)C(=O)[C@H](CCCNC(=N)N)NC(=O)[C@H](Cc2ccc(-c3ccccc3)cc2)NC(=O)[C@H](C(C)C)NC(=O)[C@H](Cc2c[nH]c3ccccc23)NC(=O)[C@H](CC(=O)O)NC(=O)[C@H](Cc2ccc(O)cc2)NC(=O)[C@H](Cc2ccccc2)NC(=O)CSC[C@@H](C(=O)NCC(N)=O)NC(=O)[C@H](CO)NC(=O)[C@H](C(C)C)NC1=O` [Example 1067] ({CH2CO}-FYDWV[Bip]R[NMeA][NMeF]R[Nle]VSCG-NH2; thioether N-14): 160 nM.
As for `CC(C)C[C@@H]1NC(=O)[C@H](CCCNC(=N)N)NC(=O)[C@H](Cc2ccccc2)N(C)C(=O)[C@H](C)N(C)C(=O)[C@H](CCCNC(=N)N)NC(=O)[C@H](Cc2ccc(-c3ccccc3)cc2)NC(=O)[C@H](C(C)C)NC(=O)[C@H](Cc2c[nH]c3ccccc23)NC(=O)[C@H](CC(=O)O)NC(=O)[C@H](Cc2ccc(O)cc2)NC(=O)[C@H](Cc2ccc(O)cc2)NC(=O)CSC[C@@H](C(=O)NCC(N)=O)NC(=O)[C@H](CO)NC(=O)[C@H](C(C)C)NC1=O` [Example 1068] ({CH2CO}-YYDWV[Bip]R[NMeA][NMeF]RLVSCG-NH2; thioether N-14), the IC50 was determined as 170 nM.
The same measure for `CC(C)C[C@@H]1NC(=O)[C@H](Cc2c[nH]c3ccccc23)NC(=O)[C@H](CC(=O)O)NC(=O)[C@H](Cc2ccc(O)cc2)NC(=O)[C@H](Cc2ccccc2)NC(=O)CSC[C@@H](C(=O)NCC(N)=O)NC(=O)[C@H](CO)NC(=O)[C@H](C(C)C)NC(=O)[C@H](CC(C)C)NC(=O)[C@H](CCN)NC(=O)CN(C)C(=O)[C@H](C)N(C)C(=O)[C@H](C(C)C)NC(=O)[C@H](Cc2ccc(-c3ccccc3)cc2)NC1=O` [Example 1069] ({CH2CO}-FYDWL[Bip]V[NMeA][Sar][Dab]LVSCG-NH2; thioether N-14): 160 nM; for `CC(C)C[C@@H]1NC(=O)[C@H](Cc2c[nH]c3ccccc23)NC(=O)[C@H](CC(=O)O)NC(=O)[C@H](Cc2ccc(O)cc2)NC(=O)[C@H](CCc2ccccc2)NC(=O)CSC[C@@H](C(=O)N[C@@H](C)C(N)=O)NC(=O)[C@H](CO)NC(=O)[C@H](C(C)C)NC(=O)[C@H](CC(C)C)NC(=O)[C@H](CC(N)=O)NC(=O)CN(C)C(=O)[C@H](C)N(C)C(=O)[C@H](C(C)C)NC(=O)[C@H](Cc2ccc(-c3ccccc3)cc2)NC1=O` [Example 1070] ({CH2CO}-[hPhe]YDWL[Bip]V[NMeA][Sar]NLVSCA-NH2; thioether N-14): 180 nM; for `CC(C)C[C@@H]1NC(=O)[C@H](Cc2c[nH]c3ccccc23)NC(=O)[C@H](CC(=O)O)NC(=O)[C@H](Cc2ccc(O)cc2)NC(=O)[C@H](Cc2ccccc2)NC(=O)CSC[C@@H](C(=O)NCC(N)=O)NC(=O)[C@H](CO)NC(=O)[C@H](C(C)C)NC(=O)[C@H](CC(C)C)NC(=O)[C@H](CCC(=O)O)NC(=O)CN(C)C(=O)[C@H](C)N(C)C(=O)[C@H](C(C)C)NC(=O)[C@H](Cc2ccc(-c3ccccc3)cc2)NC1=O` [Example 1071] ({CH2CO}-FYDWL[Bip]V[NMeA][Sar]ELVSCG-NH2; thioether N-14): 190 nM.
`CC(C)C[C@@H]1NC(=O)[C@H](Cc2c[nH]c3ccccc23)NC(=O)[C@H](CC(=O)O)NC(=O)[C@H](Cc2ccc(O)cc2)NC(=O)[C@H](Cc2ccccc2)NC(=O)CSC[C@@H](C(=O)NCC(N)=O)NC(=O)[C@H](CO)NC(=O)[C@H](C(C)C)NC(=O)[C@H](CC(C)C)NC(=O)[C@H](CCC(N)=O)NC(=O)CN(C)C(=O)[C@H](C)N(C)C(=O)[C@H](C(C)C)NC(=O)[C@H](Cc2ccc(-c3ccccc3)cc2)NC1=O` [Example 1072] ({CH2CO}-FYDWL[Bip]V[NMeA][Sar]QLVSCG-NH2; thioether N-14): the IC50 amounted to 190 nM.
